Test system: tobacco leaf
Assay: Tobacco leaf infiltration tests, macroscopic symptoms under white light
Assay type: in vivo
Settings: 50 μl, 8 days after infiltration
Description: Various tobacco leaf infiltration tests were carried out with 50 μl of solution as follows: Eight days after infiltration, macroscopic symptoms were observed under white light and under UV light (wavelength=312 nm). In the figures, the numbers correspond to the spot of infiltration of the test of the same number.

SMILES | necrosis in infiltrated foliar tissues (2 mM, white light (Test 7, positive control)) | chlorosis or necrosis at the infiltrated sites (10 mM, white light (Test 6))
O=C(O)c1ccccc1O [Salicylic acid, salicylic acid] | causes necrosis | 
CC(N)CC(=O)O (stereo not drawn) [BABA, β-aminobutyric acid] |  | do not induce chlorosis or necrosis

From patent US9788552B2, “Use of a natural grape marc extract in order to stimulate the natural defenses of plants” (CENTRE NATIONAL DE LA RECHERCHE SCIENTIFIQUE—CNRS, priority 2010, dated 2017)
